Results published in paper PMC6357218 (Molecular Therapy Oncolytics, 2018).

Target: wild-type (WT) FKBP12 (in iRC9) (Homo sapiens, UniProt P62942)
Experiment: Cross-activation of iRC9 apoptosis by high rimiducid in transfected HEK293 cells
Type: cell-based

wild-type (WT) FKBP12 (in iRC9), sequence (P62942 2-108): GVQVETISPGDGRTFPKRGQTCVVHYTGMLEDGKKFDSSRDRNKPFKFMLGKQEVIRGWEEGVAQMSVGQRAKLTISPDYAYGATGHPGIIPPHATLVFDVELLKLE

Cross-activation of iRC9 apoptosis by high rimiducid in transfected HEK293 cells: > 100 nM
SMILES: CC[C@H](C(=O)N1CCCC[C@H]1C(=O)O[C@H](CCc1ccc(OC)c(OC)c1)c1cccc(OCC(=O)NCCNC(=O)COc2cccc([C@@H](CCc3ccc(OC)c(OC)c3)OC(=O)[C@@H]3CCCCN3C(=O)[C@@H](CC)c3cc(OC)c(OC)c(OC)c3)c2)c1)c1cc(OC)c(OC)c(OC)c1 [Rim, rimiducid]
